Laboratory results as given in ChEMBL document CHEMBL1201862, “PubChem BioAssay data set” (2004).
Active and inactive are the calls of the source.

How the values were obtained:
[1] = HeLa cell cytotoxicity, dose response, cytotoxicity control for MgcRacGAP inhibitor project (AID 624300); assay type: functional
[2] = molecular target: T1, Rac GTPase-activating protein 1 (Homo sapiens, UniProt Q9H0H5); assay: MgcRacGAP GTPase-activating activity inhibitors, confirmation, biochemical, ADP Hunter fluorescence, primary and confirmatory (AID 624330); assay type: functional
T1 sequence (Q9H0H5 whole entry): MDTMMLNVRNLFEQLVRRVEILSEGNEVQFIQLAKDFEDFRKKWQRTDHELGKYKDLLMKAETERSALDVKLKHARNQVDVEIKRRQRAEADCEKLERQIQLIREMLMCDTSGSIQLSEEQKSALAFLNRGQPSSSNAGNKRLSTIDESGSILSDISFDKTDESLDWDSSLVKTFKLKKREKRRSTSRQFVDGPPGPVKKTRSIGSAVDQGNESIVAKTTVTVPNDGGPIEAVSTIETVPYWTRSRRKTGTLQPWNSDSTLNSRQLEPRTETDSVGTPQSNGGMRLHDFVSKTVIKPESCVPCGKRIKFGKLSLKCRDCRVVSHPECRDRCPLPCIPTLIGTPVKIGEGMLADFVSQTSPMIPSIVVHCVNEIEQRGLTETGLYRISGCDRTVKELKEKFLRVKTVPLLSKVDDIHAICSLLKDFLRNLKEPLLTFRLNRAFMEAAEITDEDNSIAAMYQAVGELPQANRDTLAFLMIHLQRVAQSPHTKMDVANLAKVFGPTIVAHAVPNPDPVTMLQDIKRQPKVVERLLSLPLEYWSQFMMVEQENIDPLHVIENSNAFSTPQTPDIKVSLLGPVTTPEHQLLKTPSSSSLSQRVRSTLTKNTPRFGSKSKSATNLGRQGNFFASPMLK

[3] = molecular target: T2, Sentrin-specific protease 8 (Homo sapiens, UniProt Q96LD8); assay type: functional
T2 sequence (Q96LD8 whole entry): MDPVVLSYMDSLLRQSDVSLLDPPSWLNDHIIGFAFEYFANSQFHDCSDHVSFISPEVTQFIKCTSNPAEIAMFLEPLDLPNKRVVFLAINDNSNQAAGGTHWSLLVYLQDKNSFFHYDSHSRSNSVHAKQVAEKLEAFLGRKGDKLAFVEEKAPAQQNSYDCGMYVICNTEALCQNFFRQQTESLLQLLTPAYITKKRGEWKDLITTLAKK

[4] = molecular target: T2, Sentrin-specific protease 8; assay type: functional; remark: listed apart in the source
Beta Lactamase = Beta Lactamase (Pseudomonas aeruginosa, UniProt Q932Y6); assay: beta-lactamase reporter inhibitor potency, dose response, artefact control for NOD2-RIPK2 interaction inhibitor project, BLA reporter cells, FRET fluorescence (AID 651552); assay type: functional, cell-based
Protein RecA = molecular target: T3, Protein RecA (Mycobacterium tuberculosis, UniProt P9WHJ3); assay: Fluorescence Cell-Free Homogeneous Dose Retest to Identify Inhibitors of RecA-Intein Splicing Activity. [Related pubchem assays (depositor defined):AID2097, AID2223, AID489010, AID492950]; assay type: functional
T3 sequence (P9WHJ3 whole entry): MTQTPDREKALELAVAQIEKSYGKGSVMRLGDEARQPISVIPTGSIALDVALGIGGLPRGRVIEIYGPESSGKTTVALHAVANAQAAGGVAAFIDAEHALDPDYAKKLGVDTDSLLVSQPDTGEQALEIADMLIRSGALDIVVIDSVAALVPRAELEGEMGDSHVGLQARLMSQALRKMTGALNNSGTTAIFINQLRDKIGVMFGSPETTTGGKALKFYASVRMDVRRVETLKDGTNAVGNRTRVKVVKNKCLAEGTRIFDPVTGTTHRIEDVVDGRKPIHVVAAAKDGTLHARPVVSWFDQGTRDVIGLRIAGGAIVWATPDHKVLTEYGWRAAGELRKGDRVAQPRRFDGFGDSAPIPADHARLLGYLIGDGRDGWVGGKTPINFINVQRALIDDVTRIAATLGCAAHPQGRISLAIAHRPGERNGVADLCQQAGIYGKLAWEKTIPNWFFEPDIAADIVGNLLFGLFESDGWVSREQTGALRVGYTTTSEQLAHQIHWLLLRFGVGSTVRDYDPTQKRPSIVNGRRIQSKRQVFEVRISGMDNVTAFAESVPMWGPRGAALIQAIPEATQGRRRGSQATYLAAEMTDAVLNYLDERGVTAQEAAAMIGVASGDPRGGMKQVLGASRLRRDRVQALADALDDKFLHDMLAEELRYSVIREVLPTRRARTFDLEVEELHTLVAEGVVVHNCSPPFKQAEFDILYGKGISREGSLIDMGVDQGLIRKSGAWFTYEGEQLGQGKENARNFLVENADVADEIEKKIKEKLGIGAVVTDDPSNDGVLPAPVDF

[5] = control 3'UTR Renilla luciferase suppression, dose response, counter-screen for Shn3 inhibitor project, cell-based, Clone20-Shn3RL, cherry-picked (AID 624133); assay type: functional
[6] = inhibitors of PGC1a acetylation in cells, dose response, cell-based, cherry-picked samples (AID 720514); assay type: functional;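 note: potency may reflect raised or lowered acetylation signal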
[7] = HepG2 cell cytotoxicity, dose response, cytotoxicity control for Shn3 inhibitor project, CellTiter-Glo, cherry-picked (AID 624134); assay type: functional, cell-based
[8] = Fluorescence-based cell-based high throughput dose response assay for inhibitors of the interaction of nucleotide-binding oligomerization domain containing 2 (NOD2) and the receptor-interacting serine-threonine kinase 2 (RIPK2).; assay type: functional; conditions: Homo sapiens
[9] = molecular target: FAD-linked sulfhydryl oxidase ALR (Homo sapiens, UniProt P55789); assay: inhibitors of human ALR sulfhydryl oxidase, dose response, biochemical, H2O2 detection, luminescence, cherry-pick (AID 493248)
[10] = molecular target: T4, Replicative DNA helicase DnaB (Mycobacterium tuberculosis, UniProt P9WMR3); assay: DnaB intein splicing inhibitors, dose response, biochemical, cell-free fluorescence (AID 449749); assay type: functional
T4 sequence (P9WMR3 whole entry): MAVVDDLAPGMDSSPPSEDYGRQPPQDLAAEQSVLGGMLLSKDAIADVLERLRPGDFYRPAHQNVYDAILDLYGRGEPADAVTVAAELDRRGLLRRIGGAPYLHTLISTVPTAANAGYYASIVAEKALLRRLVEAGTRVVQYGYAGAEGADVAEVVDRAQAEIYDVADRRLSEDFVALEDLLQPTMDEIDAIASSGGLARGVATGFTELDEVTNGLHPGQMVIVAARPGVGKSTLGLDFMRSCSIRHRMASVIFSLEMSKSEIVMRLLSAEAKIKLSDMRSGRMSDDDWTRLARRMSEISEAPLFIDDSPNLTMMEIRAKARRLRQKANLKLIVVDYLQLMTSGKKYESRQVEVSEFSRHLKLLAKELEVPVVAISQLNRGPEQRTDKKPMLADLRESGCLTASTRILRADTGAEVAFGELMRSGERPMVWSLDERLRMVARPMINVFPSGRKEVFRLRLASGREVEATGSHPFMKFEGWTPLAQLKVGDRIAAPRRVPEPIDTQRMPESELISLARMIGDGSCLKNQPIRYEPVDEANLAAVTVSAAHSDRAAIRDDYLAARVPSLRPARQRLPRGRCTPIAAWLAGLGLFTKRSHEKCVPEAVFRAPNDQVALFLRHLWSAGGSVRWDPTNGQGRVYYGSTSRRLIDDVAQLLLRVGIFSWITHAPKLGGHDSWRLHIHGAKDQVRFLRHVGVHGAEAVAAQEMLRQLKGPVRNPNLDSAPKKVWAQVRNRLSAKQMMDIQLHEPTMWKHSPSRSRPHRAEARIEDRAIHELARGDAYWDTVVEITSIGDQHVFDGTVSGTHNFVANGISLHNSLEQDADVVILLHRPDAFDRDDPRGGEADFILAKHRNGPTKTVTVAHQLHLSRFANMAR

[11] = Shn3 3'UTR reporter inhibitors, dose response, cell-based, Clone20 osteoblasts, firefly luciferase, cherry-picked (AID 624132); assay type: functional;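 note: firefly luciferase luminescence from reporter carrying the Shn3 3'UTR in osteoblasts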
[12] = molecular target: T5, Methionyl-tRNA synthetase, putative (Trypanosoma brucei brucei, UniProt Q38C91); assay type: functional, Trypanosoma brucei brucei strain 927/4 GUTat10.1
T5 sequence (Q38C91 whole entry): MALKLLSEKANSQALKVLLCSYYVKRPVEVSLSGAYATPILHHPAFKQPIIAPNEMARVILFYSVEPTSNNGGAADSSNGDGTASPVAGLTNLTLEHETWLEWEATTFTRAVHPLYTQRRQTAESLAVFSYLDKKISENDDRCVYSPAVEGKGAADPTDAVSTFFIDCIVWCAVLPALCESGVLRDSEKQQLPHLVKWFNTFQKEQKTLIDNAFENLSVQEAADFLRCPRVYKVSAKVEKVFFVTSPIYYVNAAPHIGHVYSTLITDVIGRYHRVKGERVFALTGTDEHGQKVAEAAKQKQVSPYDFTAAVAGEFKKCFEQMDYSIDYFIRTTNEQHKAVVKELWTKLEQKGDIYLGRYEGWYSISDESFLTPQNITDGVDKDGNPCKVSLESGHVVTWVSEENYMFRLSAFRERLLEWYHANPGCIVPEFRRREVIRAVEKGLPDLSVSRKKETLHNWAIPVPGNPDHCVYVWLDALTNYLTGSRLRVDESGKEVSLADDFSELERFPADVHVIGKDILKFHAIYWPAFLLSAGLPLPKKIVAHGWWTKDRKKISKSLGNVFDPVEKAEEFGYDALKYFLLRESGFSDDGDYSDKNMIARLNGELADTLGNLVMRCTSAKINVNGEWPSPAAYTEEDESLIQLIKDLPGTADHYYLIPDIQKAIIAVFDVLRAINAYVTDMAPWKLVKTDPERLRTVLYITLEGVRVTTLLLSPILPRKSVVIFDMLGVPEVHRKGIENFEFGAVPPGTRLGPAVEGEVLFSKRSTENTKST

[13] = Counterscreen for inhibitors of Trypanosoma brucei methionyl tRNA synthetase (MetRS): Luminescence-based cell-based high throughput dose response assay to identify compounds that are cytotoxic to Jurkat human T lymphocyte cells.; assay type: functional
[14] = molecular target: Induced myeloid leukemia cell differentiation protein Mcl-1 (Homo sapiens, UniProt Q07820); assay type: functional
[15] = molecular target: T6, RNA-binding protein pos-1 (Caenorhabditis elegans, UniProt G5EF15); assay: inhibitors of POS-1/mex-3 RNA binding, dose response, biochemical, fluorescence polarization (AID 1964);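 note: purified POS-1 fused to maltose binding protein made in E. coli; potency of compounds blocking POS-1 binding to fluorescent RNA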
T6 sequence (G5EF15 whole entry): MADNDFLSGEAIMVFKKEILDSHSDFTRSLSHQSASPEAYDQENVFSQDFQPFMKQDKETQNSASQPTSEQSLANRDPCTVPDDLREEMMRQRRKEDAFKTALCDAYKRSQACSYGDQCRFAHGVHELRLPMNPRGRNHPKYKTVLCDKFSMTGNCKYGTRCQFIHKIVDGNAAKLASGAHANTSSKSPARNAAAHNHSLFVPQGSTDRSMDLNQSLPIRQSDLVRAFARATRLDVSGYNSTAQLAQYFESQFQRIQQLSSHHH

[16] = Luminescence Cell-Based Dose Retest to Confirm Inhibitors of Cancer Stem Cells. [Related pubchem assays (depositor defined):AID2717, AID2721]; assay type: functional; conditions: Homo sapiens
[17] = molecular target: T7, Zinc finger protein mex-5 (Caenorhabditis elegans, UniProt Q9XUB2); assay: MEX-5/TCR-2 RNA interaction inhibitors, dose response, biochemical, C. elegans, fluorescence polarization (AID 1960)
T7 sequence (Q9XUB2 whole entry): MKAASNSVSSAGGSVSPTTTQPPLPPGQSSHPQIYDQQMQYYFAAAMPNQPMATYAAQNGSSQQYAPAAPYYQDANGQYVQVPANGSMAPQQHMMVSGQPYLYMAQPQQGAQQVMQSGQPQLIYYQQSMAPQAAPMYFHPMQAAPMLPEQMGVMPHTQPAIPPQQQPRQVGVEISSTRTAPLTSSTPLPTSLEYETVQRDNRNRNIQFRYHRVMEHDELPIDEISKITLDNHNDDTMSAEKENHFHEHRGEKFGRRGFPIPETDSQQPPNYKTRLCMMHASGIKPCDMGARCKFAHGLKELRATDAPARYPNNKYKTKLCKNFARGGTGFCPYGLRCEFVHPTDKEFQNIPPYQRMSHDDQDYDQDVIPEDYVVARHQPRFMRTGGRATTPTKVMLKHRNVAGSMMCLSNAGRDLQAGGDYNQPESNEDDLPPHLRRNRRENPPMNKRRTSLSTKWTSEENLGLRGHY

Chain of Induced myeloid leukemia cell differentiation protein Mcl-1 (Q07820 whole entry, the tested form may be a part): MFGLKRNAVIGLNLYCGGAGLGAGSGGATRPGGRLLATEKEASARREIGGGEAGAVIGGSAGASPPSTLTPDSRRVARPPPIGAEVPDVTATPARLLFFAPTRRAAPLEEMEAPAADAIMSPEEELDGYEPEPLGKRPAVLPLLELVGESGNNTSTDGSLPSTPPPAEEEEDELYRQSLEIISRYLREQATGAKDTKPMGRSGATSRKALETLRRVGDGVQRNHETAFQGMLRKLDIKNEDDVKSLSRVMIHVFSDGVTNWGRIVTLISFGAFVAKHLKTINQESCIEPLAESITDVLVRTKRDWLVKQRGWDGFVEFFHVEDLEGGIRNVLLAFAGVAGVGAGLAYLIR
Chain of Beta Lactamase (Q932Y6 whole entry): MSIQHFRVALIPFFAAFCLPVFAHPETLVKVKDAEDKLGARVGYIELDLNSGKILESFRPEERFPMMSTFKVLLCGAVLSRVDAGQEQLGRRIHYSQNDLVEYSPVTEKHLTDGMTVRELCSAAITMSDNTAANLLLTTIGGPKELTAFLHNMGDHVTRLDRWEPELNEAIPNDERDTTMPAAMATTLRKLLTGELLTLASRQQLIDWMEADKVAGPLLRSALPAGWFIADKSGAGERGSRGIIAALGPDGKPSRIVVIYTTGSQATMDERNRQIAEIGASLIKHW
Chain of FAD-linked sulfhydryl oxidase ALR (P55789 whole entry): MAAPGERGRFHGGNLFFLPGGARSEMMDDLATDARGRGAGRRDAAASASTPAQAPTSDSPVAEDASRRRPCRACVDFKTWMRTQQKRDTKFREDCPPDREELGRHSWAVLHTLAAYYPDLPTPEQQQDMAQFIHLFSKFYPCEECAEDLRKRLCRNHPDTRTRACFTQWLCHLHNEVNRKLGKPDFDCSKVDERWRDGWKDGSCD

COc1cc(/C=N/NC(=S)Nc2cccc(S(=O)(=O)N(C)C)c2)ccc1O
CC50 [1]: 100 µM (active)
IC50 [2]: 29 µM (active)

CSc1nnc(C)c(/C=C/NOCc2cccc(F)c2)n1
IC50 [3]: 69.9 µM (inactive)
IC50 [4]: 14 µM (active)

O=C(NCc1ccc2c(c1)OCO2)c1nc(S(=O)(=O)Cc2ccccc2)ncc1Cl
IC50 (Beta Lactamase): 32.5 µM (inactive)
EC50 (Protein RecA): 4.16 µM (active)
AC50 [5]: 21.7 µM (active)
AC50 [6]: 21.7 µM (active)
AC50 [7]: 40.5 µM (active)
IC50 [8]: 4.89 µM (active)
AC50 [9]: 0.505 µM (active)
AC50 [10]: 2.27 µM (active)
AC50 [11]: 6.4 µM (active)

Clc1ccccc1-c1ccc2ncnc(NCc3ccc4c(c3)OCO4)c2c1
IC50 [12]: 30 µM (inactive)
IC50 [13]: 83.3 µM (inactive)

COc1ccc(-c2[nH][nH]c(=O)c2NC(=O)c2ccc([N+](=O)[O-])cc2)cc1
IC50 [3]: 47.2 µM (active)
IC50 [4]: 65.5 µM (inactive)

CCNC(=O)O/N=C1\CCCCC1c1ccc([N+](=O)[O-])cc1[N+](=O)[O-] (configuration not stated)
IC50 [3]: 14.4 µM (active)
IC50 [4]: 27.2 µM (active)

CCOC(=O)CSc1nc(N)c(C(=O)Nc2ccc(N(C)C)cc2)s1
CC50 [1]: 100 µM (active)
IC50 [2]: 31.7 µM (active)
IC50 [14]: < 0.4 µM (active)

Cc1cc(-c2ccccc2)nc(N/N=C/c2ccc(O)cc2O)n1
EC50 [15]: > 300 µM (not active)
CC50 [1]: 100 µM (active)
IC50 [2]: 69.1 µM (active)
AC50 [16]: 6.35 µM (active)
EC50 [17]: 54 µM (active)
